Measured values reported in article PMC8745505, “In Vitro Investigation of Binding Interactions between Albumin–Gliclazide Model and Typical Hypotensive Drugs” (International Journal of Molecular Sciences, 2021).
Where “and” joins values, the source holds several entries; their conditions need not be identical. Equal entries are not always repeated. Structures can show the parent of a compound that is named as a salt. Where two headings read alike, the source gives them in different places. One block for each molecule: values may come before it.

Experiments:
[1] = biological target: T1, bovine serum albumin (BSA) (Bos taurus, UniProt P02769)
T1 sequence (P02769 25-607): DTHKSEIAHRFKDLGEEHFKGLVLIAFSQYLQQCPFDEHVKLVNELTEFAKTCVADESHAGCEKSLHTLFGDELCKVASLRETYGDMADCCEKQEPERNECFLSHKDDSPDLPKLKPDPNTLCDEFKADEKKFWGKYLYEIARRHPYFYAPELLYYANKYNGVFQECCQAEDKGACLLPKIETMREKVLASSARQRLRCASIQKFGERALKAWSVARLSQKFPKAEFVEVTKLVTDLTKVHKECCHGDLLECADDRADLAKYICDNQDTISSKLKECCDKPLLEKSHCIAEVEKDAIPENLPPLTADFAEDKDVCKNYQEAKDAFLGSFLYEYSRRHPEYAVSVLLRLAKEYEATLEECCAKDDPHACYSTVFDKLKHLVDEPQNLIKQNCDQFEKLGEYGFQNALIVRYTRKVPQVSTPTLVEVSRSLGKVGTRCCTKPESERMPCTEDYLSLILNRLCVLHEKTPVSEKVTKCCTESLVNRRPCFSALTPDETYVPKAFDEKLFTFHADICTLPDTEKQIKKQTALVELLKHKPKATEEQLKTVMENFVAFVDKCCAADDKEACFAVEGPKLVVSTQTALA
Experimental: (§1) Bovine serum albumin (≥96%) was used to prepare 1.2 mM stock solution in PBS (pH 7.4). […] The concentration of BSA was controlled by the spectrophotometric method at 280 nm (with a molar coefficient of 43,824 cm^−1 M^−1). […] Simultaneously, a control sample containing BSA solution without any ligands was prepared. Measurements were performed in triplicate. All reagents were received from Sigma-Aldrich (St. Luis, MO, USA).
The circular dichroism spectra data were recorded using JASCO J-1500 spectropolarimeter (Tokyo, Japan) in the range of 205–250 nm, with a scanning speed of 200 nm/min and with 0.1 step resolution using a quartz cuvette with a length path of 0.1 cm. The measurements were conducted for binary (BSA–DRUG) and ternary (BSA–DRUG–GLICL) models to provide information about the influence of ligand binding on the protein structure. The baseline was corrected using a phosphate buffer, pH = 7.4.
Mean residue ellipticity (MRE) was calculated according to the following Equation (7) and expressed in deg cm^2 dmol^−1:(7) MRE=Θobs/cp·n·l·10 where Θobs is the observed CD (in mdegree), Cp is the molar concentration of BSA, n is the number of amino acid residues (583 for BSA), and l is the path length of the cuvette (0.1 cm).
The α-helical contents of free and modified BSA were calculated from MRE values at 208 nm with Equation (8):(8) α-helix (%)=MRE208−4000/33,000−4000 ·100 where MRE208 is the observed MRE value at 208 nm, 4000 is the MRE of the β-form and random coil conformation cross at 208 nm, and 33,000 is the MRE value of the pure α-helix of BSA at 208 nm.

[2] = biological target: T1, bovine serum albumin (BSA); details: for Stern–Volmer quenching constant KSV: GLICL as quencher 0–14 µM, DRUG 8 µM (DRUG:BSA 4:1), λex 280 nm
Experimental: as §1
Fluorescence intensities of ternary models (BSA–DRUG–GLICL) were recorded using a Jasco FP-8200 spectrofluorometer with Peltier-thermo Cell Holder ETC-814 (Tokyo, Japan) at excitation wavelength of 280 nm, equipped with 1.0 cm quartz cells. The slit widths were set at 5 nm. The measurements were conducted at two different temperatures, 298 and 310 K. The fluorescence spectra of the drugs alone were also recorded. Each spectrum background was corrected by subtracting the spectrum of the phosphate buffer as a blank sample.
According to the assumption that fluorophores in a protein molecule may differ in accessibility, modified Stern–Volmer Equation (2) was used for the construction of plots and to calculate quenching constants:(2) F0/F0−F=1/fa·KSV·Q+1/fa where F0 and F are the fluorescence intensities in the absence and presence of gliclazide (GLICL), respectively; fa is the fraction of the initial fluorescence accessible to the quencher; Ksv is the Stern–Volmer quenching constant; and Q is the concentration of the quencher (GLICL).
The binding parameters (binding constant and number of binding sites) were obtained from double-log modified Stern–Volmer Equation (3):(3) logF0−F/F=logKa+n·logQ where F0 and F are the fluorescence intensities in the absence and presence of the quencher (gliclazide), respectively; Ka is the binding constant of the complex BSA–DRUG–GLICL, expressed as M^−1; n is the number of bound gliclazide molecules; and Q is the concentration of the quencher (GLICL).

plasma protein = details: cited from earlier work; for Binding to plasma protein: general statement, no reference given
[3] = biological target: T1, bovine serum albumin (BSA); remark: listed apart in the source
Experimental: as §1
The thermodynamic analysis of the interaction between albumin and GLICL was performed on measurements at three temperatures (298, 303, 310 K) based on the van’t Hoff Equations (4)–(6):(4) ΔG=−R·T·lnKa (5) ΔG=ΔH−T·ΔS (6) lnKa=−ΔH/R·T+ΔS/R where ΔG is the free energy change, ΔH is the enthalpy change, ΔS is the entropy change, R is the universal gas constant, and T is the temperature.

albumin = details: cited from earlier work
BSA = test system: BSA; set-up: method as in PMID 28888191; details: no additional ligand, cited from earlier work
[4] = BSA–GLICL complex in presence of DRUG, 298 303 310 K

Structure (SMILES): CCOC(=O)C1=C(COCCN)NC(C)=C(C(=O)OC)C1c1ccccc1Cl (stereo not drawn) [AML, amlodipine besylate]
Decreased α-Helix (%) [1]: 0.7%
Ka, association constant of BSA–GLICL complex in presence of DRUG [2]: 1.15 ± 0.01 10^4 M^−1
n, number of binding sites (bound gliclazide molecules) [2]: 0.93 ± 0.01 and 0.97 ± 0.01
Binding to plasma protein (plasma protein): over 95%
ΔS [3]: 100.32 J/mol K

Structure (SMILES): CC(C)NCC(O)COc1ccc(CC(N)=O)cc1 (stereo not drawn) [ATN, atenolol]
Association constant, site 1 of albumin (albumin): approx. 10^3 M^−1

Structure (SMILES): Cc1ccc(S(=O)(=O)NC(=O)NN2CC3CCCC3C2)cc1 (stereo not drawn) [GLICL, gliclazide]
Ka of BSA–GLICL (binary model) (BSA; 298 K): 3.80 10^4 M^−1
Ka of BSA–GLICL (binary model) (BSA; 310 K): 3.76 10^4 M^−1
Plasma protein binding (plasma protein): up to 94%

α-Helix Content (%) ([1]; binary BSA–DRUG, molar ratio 1:4, 310 K (BSA alone 68.7)): 67.6%
Decreased α-Helix (%) ([1]; binary BSA–DRUG, molar ratio 1:4, 310 K, vs BSA alone): 1.1%
α-Helix Content (%) ([1]; ternary BSA–DRUG–GLICL, BSA:Ligand 1:4, BSA:GLICL 1:7, 310 K (BSA alone 68.7)): 63.1%
Decreased α-Helix (%) ([1]; ternary BSA–DRUG–GLICL, BSA:Ligand 1:4, BSA:GLICL 1:7, 310 K, vs BSA alone): 5.6%
n, number of binding sites (bound gliclazide molecules) ([2]; BSA–DRUG–GLICL, 298 K): 1.04 ± 0.01
n, number of binding sites (bound gliclazide molecules) ([2]; BSA–DRUG–GLICL, 310 K): 1.03 ± 0.03
Ka, association constant of BSA–GLICL complex in presence of DRUG ([2]; BSA–DRUG–GLICL, DRUG:BSA 4:1, 298 K): 1.65 ± 0.02 10^4 M^−1
Ka, association constant of BSA–GLICL complex in presence of DRUG ([2]; BSA–DRUG–GLICL, DRUG:BSA 4:1, 310 K): 2.09 ± 0.07 10^4 M^−1
Stern–Volmer quenching constant KSV ([2]; BSA–DRUG–GLICL, 298 K): 2.23 ± 0.01 10^4 M^−1
Stern–Volmer quenching constant KSV ([2]; BSA–DRUG–GLICL, 310 K): 0.96 ± 0.16 10^4 M^−1
Mechanism of quenching of BSA fluorescence by GLICL in presence of DRUG ([2]; from temperature dependence of KSV, 298 vs 310 K): static mechanism
Change of Ka of BSA–GLICL complex in comparison to the binary model ([2]; ternary vs binary model (binary Ka from ref 24)): more than a twofold decrease
ΔH [3, 4]: 3.604 kcal/mol
ΔS [3, 4]: 131.36 J/mol K
ΔG ([3]; BSA–GLICL complex in presence of DRUG, 298 K): -5.753 kcal/mol
ΔG ([3]; BSA–GLICL complex in presence of DRUG, 303 K): -5.908 kcal/mol
ΔG ([3]; BSA–GLICL complex in presence of DRUG, 310 K): -6.128 kcal/mol
Structure (SMILES): CCOC(=O)[C@H](CCc1ccccc1)N[C@@H](C)C(=O)N1Cc2ccccc2C[C@H]1C(=O)O [QUI, quinapril hydrochloride]
Binding to plasma protein (plasma protein): over 95%

Decreased α-Helix (%) [1]: 1.0% and 3.5%
α-Helix Content (%) [1]: 67.7% and 65.2%
Ka, association constant of BSA–GLICL complex in presence of DRUG [2]: 0.12 ± 0.04 10^4 M^−1
Mechanism of quenching of BSA fluorescence by GLICL in presence of DRUG [2]: static mechanism
n, number of binding sites (bound gliclazide molecules) [2]: 0.87 ± 0.01 and 0.74 ± 0.02
ΔG [3]: -5.21 kcal/mol
ΔH [3]: 23.924 kcal/mol
ΔS [3]: 393.25 J/mol K
Structure (SMILES): CCCCC(=O)N(Cc1ccc(-c2ccccc2-c2nnn[nH]2)cc1)[C@H](C(=O)O)C(C)C [VAL, valsartan]
Protein binding (plasma protein): 95%
